Laboratory results as given in paper PMC9960553, ““Dual Anta-Inhibitors” of the A2A Adenosine Receptor and Casein Kinase CK1delta: Synthesis, Biological Evaluation, and Molecular Modeling Studies” (Pharmaceuticals, 2023).
“And” between values parts separate entries of the source, which are not always exact repeats. Identical values can stand only once.

How the values were obtained:
truncated CK1δ = molecular target: T1, truncated CK1δ (Homo sapiens, UniProt P48730); assay: CK1δ luminescent kinase assay (Kinase-Glo); format: biochemical; conditions: for remaining activity at 10 µM: read-out: % Residual Activity at 10 μM ± sd; for remaining activity at 40 µM: compound at 40 μM, read-out: % Residual Activity at 40 μM ± sd; for IC50: truncated CK1δ, ATP 2 μM, read-out: IC50 (μM), CK1δ inhibition
T1 construct: recombinant human, GST-tagged, aa 1-294; GST; purchased Merck Millipore, Merck KGaA, Darmstadt, Germany
T1 sequence (P48730 1-294): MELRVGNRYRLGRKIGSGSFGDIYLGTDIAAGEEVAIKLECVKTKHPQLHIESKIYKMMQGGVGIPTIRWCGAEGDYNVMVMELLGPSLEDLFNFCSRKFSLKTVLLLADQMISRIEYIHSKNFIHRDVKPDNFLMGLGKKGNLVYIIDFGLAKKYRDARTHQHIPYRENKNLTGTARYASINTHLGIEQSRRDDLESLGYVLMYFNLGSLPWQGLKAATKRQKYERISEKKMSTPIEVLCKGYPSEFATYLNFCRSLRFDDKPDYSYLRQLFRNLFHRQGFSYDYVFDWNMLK
Procedure: Luminescent assays were performed in white 96-well plates in a 40 μL final volume with buffer containing 50 mM HEPES (pH 7.5), 1 mM EDTA, 1 mM EGTA, and 15 mM MgCl2. In a typical assay, 10 μL of inhibitor solution (desired concentrations were obtained by diluting a starting 10 mM solution in DMSO) and 10 μL of enzyme solution were added to the well, followed by 20 μL of assay buffer containing casein substrate (Sigma-Aldrich, Merck KGaA, Darmstadt, Germany, casein solution from bovine milk, 5% in water) and ATP, at a final concentration of 0.05% and 2 μM, respectively. […] After 60 min of incubation at 30 °C, the enzymatic reactions were stopped with the addition of 40 μL of KinaseGlo reagent. […] Data were analyzed using Excel and GraphPad Prism software (version 8.0).

human recombinant A1AR = molecular target: T2, human recombinant A1AR (Homo sapiens, UniProt P30542); assay: [3H]CCPA displacement binding in CHO cell membranes; conditions: mean ± standard error, read-out: KiA1
T2 construct: expressed in transfected cells; host or cells: CHO cells (membranes)
T2 sequence (P30542 1-326): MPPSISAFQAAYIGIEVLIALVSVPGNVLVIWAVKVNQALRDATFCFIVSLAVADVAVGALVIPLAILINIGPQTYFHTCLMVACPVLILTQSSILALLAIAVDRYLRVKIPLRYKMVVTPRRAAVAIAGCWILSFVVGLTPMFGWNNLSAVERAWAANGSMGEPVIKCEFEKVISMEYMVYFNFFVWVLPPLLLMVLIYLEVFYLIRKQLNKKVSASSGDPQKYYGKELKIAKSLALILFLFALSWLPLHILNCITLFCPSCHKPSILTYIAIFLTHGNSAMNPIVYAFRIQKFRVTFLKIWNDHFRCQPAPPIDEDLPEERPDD
Procedure: (§1) Compounds 5, 6, 8–12, 15–21, and 23–25 were evaluated in binding studies at human recombinant A1, A2A, and A3 ARs, stably transfected in Chinese hamster ovary (CHO) cells. [^3H]CCPA (2-chloro-N^6-cyclopentylAdo), [^3H]NECA (5’-N-ethylcarboxamidoAdo), and [^3H]HEMADO (2-hexynyl-N^6-methylAdo) were used as the, respective, radioligands. All compounds were also tested at the A2BARs by inhibition of NECA-stimulated adenylyl cyclase activity, using the GloSensor cAMP assay, but none of them were active at a concentration up to 30 μM [35]. The results, together with the data of the reference adenine derivative 1, are reported in Table 2 as Ki values in μM (± standard errors). In the table, the IC50 values (μM) of the CK1δ inhibitory activity are also indicated. […] We called the compounds endowed with receptor antagonist behavior combined with an enzyme inhibitory activity “dual anta-inhibitors”.
(§2) All of the pharmacological methods followed the procedures as described earlier. In brief, the membranes for radioligand binding were prepared from CHO cells stably transfected with human adenosine receptor subtypes through two centrifugations at different speeds. The first low-speed […] centrifugation allowed for the removal of cell fragments and nuclei, while the second, performed at high speed (100,000× g), allowed for the precipitation of the crude membrane fractions. The resulting membrane pellet was resuspended in the buffer used for the respective binding experiments, frozen in liquid nitrogen, and stored in aliquots at −80 °C.
(§3) The binding affinity of the novel compounds was evaluated using radioligand competition experiments in CHO cells stably expressing hA1AR, hA2AAR, hA3AR subtypes, as early described. Results were expressed as Ki values (dissociation constants), which were calculated with the program GraphPad (GraphPad Software, San Diego, CA, USA). Each concentration was tested three–five times in duplicate and the values given as the mean ± standard error (S.E.). The potency of compounds at the hA2BAR (expressed on CHO cells) was determined through a GloSensor cAMP Assay.

human recombinant A2AAR = molecular target: T3, human recombinant A2AAR (Homo sapiens, UniProt P29274); assay: [3H]NECA displacement binding in CHO cell membranes; conditions: mean ± standard error, read-out: KiA2A
T3 construct: expressed in transfected cells; host or cells: CHO cells (membranes)
Procedure: as §1, §2, §3

human recombinant A3AR = molecular target: T4, human recombinant A3AR (Homo sapiens, UniProt P0DMS8); assay: [3H]HEMADO displacement binding in CHO cell membranes; conditions: mean ± standard error, read-out: KiA3
T4 construct: expressed in transfected cells; host or cells: CHO cells (membranes)
T4 sequence (P0DMS8 1-318): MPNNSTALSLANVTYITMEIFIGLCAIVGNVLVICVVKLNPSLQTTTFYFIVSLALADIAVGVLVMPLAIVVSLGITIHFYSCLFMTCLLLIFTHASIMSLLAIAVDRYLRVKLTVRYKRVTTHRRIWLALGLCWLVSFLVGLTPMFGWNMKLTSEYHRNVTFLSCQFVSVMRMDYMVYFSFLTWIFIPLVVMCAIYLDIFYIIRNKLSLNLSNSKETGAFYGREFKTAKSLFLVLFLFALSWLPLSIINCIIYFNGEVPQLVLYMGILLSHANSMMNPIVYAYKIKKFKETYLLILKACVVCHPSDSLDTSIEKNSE
Procedure: as §1, §2, §3

[1] = CK1δ residual activity, compound at 10 μM

T3 sequence (P29274 whole entry): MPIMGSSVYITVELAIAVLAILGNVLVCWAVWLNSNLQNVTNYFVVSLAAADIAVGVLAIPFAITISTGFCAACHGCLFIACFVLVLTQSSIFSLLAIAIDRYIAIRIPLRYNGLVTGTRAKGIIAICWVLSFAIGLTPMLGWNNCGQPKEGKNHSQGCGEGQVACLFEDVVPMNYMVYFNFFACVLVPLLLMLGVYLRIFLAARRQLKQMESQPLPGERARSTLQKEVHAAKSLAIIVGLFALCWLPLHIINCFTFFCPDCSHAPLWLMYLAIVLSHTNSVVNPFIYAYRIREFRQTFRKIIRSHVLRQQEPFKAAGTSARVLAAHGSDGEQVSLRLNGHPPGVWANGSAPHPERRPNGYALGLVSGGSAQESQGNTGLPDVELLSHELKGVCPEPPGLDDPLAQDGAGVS

remaining activity at 10 µM (truncated CK1δ; [1]) | remaining activity at 40 µM (truncated CK1δ; CK1δ residual activity) | IC50 (truncated CK1δ) | Ki (human recombinant A1AR) | Ki (human recombinant A2AAR) | Ki (human recombinant A3AR) | melting point | % Residual Activity at 10 μM ± sd (truncated CK1δ; CK1δ residual activity, compound at 10 μM, 10 µM) | SMILES
13 ± 7.4% | 0.7 ± 0.4% | 5.25 µM and 5.2 µM | 1890 ± 160 nM | 465 ± 129 nM | 631 ± 62 nM | 121 to 122 °C | – | Nc1nc(Cl)nc2c1ncn2C1CCCC1 [Compound 1, 2-chloro-9-cyclopentyl-9H-purin-6-amine]
37 ± 3.8% | 43 ± 3.2% | 5.25 ± 0.9 µM | 1530 ± 265 nM | 558 ± 151 nM | – | 117 to 119 °C | – | Nc1nc(Cl)nc2c1ncn2C1CCC1 [Compound 5, 2-chloro-9-cyclobutyl-9H-purin-6-amine]
> 50% | 30 ± 0.2% | > 10 µM | – | – | – | 125 to 126 °C | 52 ± 3.0% | Nc1nc(Cl)nc2c1ncn2C1CCCCC1 [Compound 6, 2-chloro-9-cyclohexyl-9H-purin-6-amine]
– | 86 ± 1.6% | > 40 µM | 118 ± 10 nM | 7 nM | 140 ± 35 nM | 152 to 153 °C | – | Nc1nc(Cl)nc2c1nc(-c1ccco1)n2C1CCCC1 [Compound 8, 2-chloro-9-cyclopentyl-8-(furan-2-yl)-9H-purin-6-amine]
– | 90 ± 4.6% | > 40 µM | 53 ± 9 nM | 36 ± 9 nM | 17 ± 2 nM | 158 to 159 °C | – | Nc1nc(Cl)nc2c1nc(-c1cccs1)n2C1CCCC1 [Compound 9, 2-chloro-9-cyclopentyl-8-(thiophen-2-yl)-9H-purin-6-amine]
48 ± 3.5% | 30 ± 4.1% | 5.3 ± 1 µM | 3960 ± 800 nM | 157 ± 40 nM | 298 ± 47 nM | – | – | Nc1nc(NCc2ccccc2)nc2c1ncn2C1CCCC1 [Compound 10, N^2-benzyl-9-cyclopentyl-9H-purine-2,6-diamine]
– | 88 ± 2.9% | > 40 µM | 580 ± 46 nM | 12 ± 3 nM | 49 ± 8 nM | – | – | Nc1nc(NCCc2ccccc2)nc2c1ncn2C1CCCC1 [Compound 11, 9-Cyclopentyl-N^2-phenethyl-9H-purine-2,6-diamine]
24 ± 14% | 22 ± 13% | 1.53 ± 0.4 µM | > 30000 nM | 3260 ± 626 nM | 1138 ± 4 nM | – | – | Clc1nc(NCc2nc3ccccc3[nH]2)c2ncn(C3CCCC3)c2n1 [Compound 15, N-((1H-benzo[d]imidazol-2-yl)methyl)-2-chloro-9-cyclopentyl-9H-purin-6-amine]
26 ± 7.6% | 46 ± 31% | 4.76 ± 0.3 µM | > 30000 nM | 718 ± 149 nM | 432 ± 25 nM | – | – | c1ccc(CNc2nc(NCc3nc4ccccc4[nH]3)c3ncn(C4CCCC4)c3n2)cc1 [Compound 16, N^6-((1H-benzo[d]imidazol-2-yl)methyl)-N^2-benzyl-9-cyclopentyl-9H-purine-2,6-diamine]
38 ± 6% | 29 ± 3.9% | 3.37 ± 2.5 µM | > 30000 nM | > 30000 nM | > 30000 nM | – | – | O=C(NCc1ccccc1)Nc1nc(Cl)nc2c1ncn2C1CCCC1 [Compound 18, 1-Benzyl-3-(2-chloro-9-cyclopentyl-9H-purin-6-yl)urea]
23 ± 2.4% | 44 ± 2.6% | 2.55 ± 0.2 µM | 20700 ± 1870 nM | 13500 ± 980 nM | 14800 ± 3010 nM | – | – | COC(=O)CNc1nc(Cl)nc2c1ncn2C1CCCC1 [Compound 19, Methyl (2-chloro-9-cyclopentyl-9H-purin-6-yl)glycinate]
32 ± 16% | 29 ± 12% | 1.87 ± 0.2 µM | > 30000 nM | > 30000 nM | – | – | – | O=C(CNc1nc(Cl)nc2c1ncn2C1CCCC1)NCc1ccccc1 [Compound 20]
13 ± 24% | 25 ± 9.6% | 0.36 ± 0.1 µM | 8660 ± 1520 nM | 3480 ± 312 nM | 5960 ± 1020 nM | – | – | N#CCNc1nc(Cl)nc2c1ncn2C1CCCC1 [Compound 21, 2-((2-Chloro-9-cyclopentyl-9H-purin-6-yl)amino)acetonitrile]
27 ± 20% | 14 ± 9.7% | 0.66 ± 0.2 µM | 1340 ± 279 nM | 1170 ± 37 nM | 151 ± 15 nM | 100 to 101 °C | – | Clc1nc(NCCc2ccccc2)c2ncn(C3CCCC3)c2n1 [Compound 23, 2-chloro-N^6-(2-phenylethyl)-9-cyclopentyladenine]
31 ± 12% | 14 ± 4.3% | 1.69 ± 1 µM | 10800 ± 2040 nM | 2650 ± 381 nM | – | – | – | Clc1ccc(CCNc2nc(Cl)nc3c2ncn3C2CCCC2)cc1 [Compound 25, 2-Chloro-N-(4-chlorophenethyl)-9-cyclopentyl-9H-purin-6-amine]
